Measurements as given in US20250000864A1, “GONADOTROPIN-RELEASING HORMONE ANTAGONIST, AND PREPARATION METHOD THEREFOR AND USE THEREOF” (SHANDONG LUYE PHARMACEUTICAL CO., LTD., priority 2021, published 2025).
Like-named read-outs stand apart in the source and are kept apart here.

Tests used:
human GnRHR [1] = molecular target: T1, human GnRHR (Homo sapiens (Human), UniProt P30968); experiment: In vitro binding screening ([125I][D-Trp6]-LH-RH displacement, Chem-1 cell membranes)
Protocol: [D-Trp6]-LH-RH, PerkinElmer; [D-Trp6]-LH-RH, Abcam.
Equipment: MicroBeta2 LumiJET system, PerkinElmer.
Method: Chem-1 cell membranes stably expressing human GnRHR were resuspended in HEPES at pH 7.4. […] [D-Trp6]-LH-RH was used in the non-specific binding assay. Cell membranes were collected by filtration under vacuum and washed before liquid scintillation. The binding IC50 and IC90 of the compounds were calculated using Prism.

human GnRHR [2] = molecular target: T1, human GnRHR; experiment: In vitro antagonistic activity screening (FLIPR calcium fluorescence, Leuprolide acetate stimulation); format: cell-based; conditions: HEK293 cells stably expressing human GnRHR
Protocol: Cell: HEK293 cells stably expressing human GnRHR (WuXi AppTec (Shanghai) Co., Ltd.) Equipment: 384-well plate, Greiner; Vi-cell XR Cell Viability Analyzer, Beckman Coulter; incubator, Thermo.
Method: HEK293 cells stably expressing human GnRHR were seeded into a 384-well plate at a density of 20,000/well. Fluo-4 Direct™ No-wash Loading Buffer (Invitrogen) was added to each well the next day, and then the plate was put back into an incubator, incubated at 37° C. for 50 min, and then incubated at room temperature for 10 min. Test compounds were formulated in DMSO. […] Fluorescence values were determined using a FLIPR Tetra high throughput real-time fluorescence detection and assay system. Then 10 μL of Leuprolide acetate was added, and fluorescence values were determined. IC50 and IC90 of the compounds were calculated using Prism.

[3] = Pituitary tissue distribution in SD rats after intragastric administration; format: in vivo; set-up: Plasma concentration / Pituitary concentration: unit not given here; conditions: i.g 12 mg/kg; for Concentration in the pituitary relative to Relugolix: vs Relugolix; for Concentration in the pituitary relative to compound 2A: vs compound 2A
Protocol: (§1) Instrument: water purification equipment, Millipore; electronic balance, METTLER TOLEDO; high-speed benchtop centrifuge, Thermo; water bath thermostatic oscillator, Shanghai Yiheng Technical Co., Ltd.; vortex oscillator, Thermo; LC-MS/MS, AB SCIEX.
(§2) Method: all compounds were formulated in DMSO and 20% solutol. In the pharmacokinetic experiment, the administration dose for the intravenous group (i.v) was 1 mg/kg, and the administration dose for the intragastric group (i.g) was 12 mg/kg, each group containing 3 rats. Blood was collected from the orbit of the rats before (0 h) the administration and at set time points after administration. In the tissue distribution experiment, the rats were subjected to intragastric administration at a dose of 12 mg/kg. […] The […] in a heparinized EP tube and centrifuged at 13,500 rpm for 10 min to isolate the plasma. The pituitary was homogenized with water in a certain proportion. The plasma and pituitary homogenates were pre-treated and then analyzed by LC-MS/MS to determine the concentration of the test substances in the plasma and the pituitary. The plasma drug concentration data were processed in a non-compartmental model using WinNonlin™ Version 6.3 (Pharsight, Mountain View, CA) pharmacokinetic software.

[4] = molecular target: human hERG potassium channel (Homo sapiens (Human), UniProt Q12809); experiment: hERG test (QPatch automated patch clamp, CHO cells); format: cell-based; conditions: for Inhibitory activity on the human hERG potassium channel compared with Relugolix: in words, vs Relugolix
Protocol: Cell: CHO cells stably expressing a human hERG potassium channel (WuXi AppTec (Shanghai) Co., Ltd.) Reagent: physiological solution (pH=7.4): 140 mM NaCl, 4 mM KCl, 2 mM CaCl2), 1 mM MgCl2, 5 mM Glucose, 10 mM HEPES, Osmolarity: about 298 mOsm; external solution (pH=7.4): 80 mM NaCl, 4 mM KCl, 2 mM CaCl2), 1 mM MgCl2, 5 mM Glucose, 60 mM NMDG, 10 mM HEPES, Osmolarity: about 289 mOsm; internal solution (pH=7.4): 10 mM NaCl, 10 mM KCl, 110 mM KF, 10 mM HEPES, EGTA: […], Osmolarity: about 280 mOsm.
Equipment: QPatch high-throughput automated patch clamp system, Sophion.
Method: CHO cells stably expressing a human hERG potassium channel were digested with TrypLE and resuspended in a physiological solution for later use. The single-cell high-impedance sealing and whole-cell mode formation processes were automatically completed by Qpatch. The clamping voltage for the cells was −80 mV. Then a voltage of −50 mV was applied for 80 ms to subtract (current) leakage, and a voltage of +20 mV was applied for 4800 ms to open the hERG channel. The voltage was then reduced to −50 mV and maintained for 5000 ms. This process was used for data collection and analysis. Finally, the voltage was returned to the clamping voltage (−80 mV, 1000 ms). This process was repeated every 20,000 ms. 40 μL of solvent control (external solution+DMSO) was added first, and the test was performed for […] to collect baseline data. Then, 40 μL of each of the test compounds was added at various concentrations, and the test was performed for no less than […]. The compounds were each dissolved in DMSO, with test concentrations being 0.30 μM, 1.00 μM, 3.00 μM, 10.00 μM, and 30.00 μM. The IC50 data for the hERG test were obtained by analyzing using DataControl, Excel2013, and Prism.

[5] = Pharmacokinetics in SD rats (i.v. and i.g.); format: in vivo; conditions: for bioavailability: i.g 12 mg/kg vs i.v 1 mg/kg, read-out: F (absolute bioavailability)
Protocol: as §1, §2

[6] = Caco-2 two-way permeability and efflux; format: in vitro ADME; conditions: human; for efflux ratio at 120 min: Caco-2
Protocol: (§3) Instrument: water purification equipment, ELGA LabWate; biosafety cabinet, NUAIRE; thermostatic CO2 incubator, Thermo; microplate reader, PerkinElmer; LC-MS/MS, AB SCIEX.
(§4) Method: A Caco-2 monolayer cell model was used to determine the two-way permeability of the test substances and evaluate whether the test substances were transported by the efflux of a transporter. In the experiment, Caco-2 cells were seeded into a 96-well cell culture plate and cultured for 28 consecutive days for transport assay. The test substances were each administered on two sides. After being incubated for 120 min, the samples at the apical end A, at the basal end B, and with cell lysis were collected and quantitatively determined for the content of the test substances by using a liquid chromatography-tandem mass spectrometry (LC/MS/MS) method. The apparent permeability coefficient (Papp) in the direction from the apical end to the basal end (A-B) and in the direction from the basal end to the apical end (B-A) and the efflux ratio were calculated from the concentrations of the test substances.

[7] = Metabolic stability in human liver microsomes; format: in vitro ADME
Protocol: (§5) Liver Microsome: Rat Liver Microsome and Human Liver Microsome Reagent: NADPH, Roche Diagnostics Gmbh; ACN, Merck Chemical; Tolbutamide, Sigma. Instrument: water purification equipment, Millipore; electronic balance, METTLER TOLEDO; high-speed benchtop centrifuge, Thermo; water bath thermostatic oscillator, Shanghai Yiheng Technical Co., Ltd.; vortex oscillator, Thermo; LC-MS/MS, AB SCIEX. Method: the metabolic stability of test substances was evaluated by using SD rat and human liver microsomes. The test substances were incubated with liver microsomes from different species by using NADPH under a water bath at 37° C. A cold acetonitrile solution containing a Tolbutamide internal standard substance was added at a specified time point to terminate the reaction. The samples were pre-treated and then subjected to semi-quantitative analysis by LC-MS/MS. The retention times of the analytes and Tolbutamide internal standard, the acquisition of chromatograms, and the integration of chromatograms were processed using software Analyst (A Sciex, Framingham, Massachusetts, USA). The in vitro elimination rate constant Ke of the samples was obtained by converting the ratio of the peak area of the samples to the peak area of the internal standard into the residual percentage, and the in vitro clearance rate and the half-life of the test samples were calculated.

[8] = Metabolic stability in rat liver microsomes; format: in vitro ADME, SD rat; conditions: Rat liver microsomes
Protocol: as §5

Caco-2 cells = experiment: Caco-2 two-way permeability and efflux; format: in vitro ADME
Protocol: as §3, §4

[9] = male, Sprague-Dawley (SD), rat, plasma, iv, i.v 1 mg/kg
[10] = male, Sprague-Dawley (SD), rat, plasma, po, i.g 12 mg/kg
[11] = intragastric group, vs Relugolix
[12] = intragastric group, vs compound 2A

T1 sequence (P30968 whole entry): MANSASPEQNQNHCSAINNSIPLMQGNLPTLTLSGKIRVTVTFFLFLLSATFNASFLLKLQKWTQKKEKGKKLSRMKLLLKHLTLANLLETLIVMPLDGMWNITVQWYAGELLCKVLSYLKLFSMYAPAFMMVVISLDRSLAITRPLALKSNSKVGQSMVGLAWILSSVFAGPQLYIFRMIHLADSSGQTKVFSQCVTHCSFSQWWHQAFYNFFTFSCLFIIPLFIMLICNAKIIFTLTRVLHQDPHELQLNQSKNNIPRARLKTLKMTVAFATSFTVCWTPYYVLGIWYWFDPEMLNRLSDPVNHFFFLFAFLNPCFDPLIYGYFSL
human hERG potassium channel, sequence (Q12809 whole entry): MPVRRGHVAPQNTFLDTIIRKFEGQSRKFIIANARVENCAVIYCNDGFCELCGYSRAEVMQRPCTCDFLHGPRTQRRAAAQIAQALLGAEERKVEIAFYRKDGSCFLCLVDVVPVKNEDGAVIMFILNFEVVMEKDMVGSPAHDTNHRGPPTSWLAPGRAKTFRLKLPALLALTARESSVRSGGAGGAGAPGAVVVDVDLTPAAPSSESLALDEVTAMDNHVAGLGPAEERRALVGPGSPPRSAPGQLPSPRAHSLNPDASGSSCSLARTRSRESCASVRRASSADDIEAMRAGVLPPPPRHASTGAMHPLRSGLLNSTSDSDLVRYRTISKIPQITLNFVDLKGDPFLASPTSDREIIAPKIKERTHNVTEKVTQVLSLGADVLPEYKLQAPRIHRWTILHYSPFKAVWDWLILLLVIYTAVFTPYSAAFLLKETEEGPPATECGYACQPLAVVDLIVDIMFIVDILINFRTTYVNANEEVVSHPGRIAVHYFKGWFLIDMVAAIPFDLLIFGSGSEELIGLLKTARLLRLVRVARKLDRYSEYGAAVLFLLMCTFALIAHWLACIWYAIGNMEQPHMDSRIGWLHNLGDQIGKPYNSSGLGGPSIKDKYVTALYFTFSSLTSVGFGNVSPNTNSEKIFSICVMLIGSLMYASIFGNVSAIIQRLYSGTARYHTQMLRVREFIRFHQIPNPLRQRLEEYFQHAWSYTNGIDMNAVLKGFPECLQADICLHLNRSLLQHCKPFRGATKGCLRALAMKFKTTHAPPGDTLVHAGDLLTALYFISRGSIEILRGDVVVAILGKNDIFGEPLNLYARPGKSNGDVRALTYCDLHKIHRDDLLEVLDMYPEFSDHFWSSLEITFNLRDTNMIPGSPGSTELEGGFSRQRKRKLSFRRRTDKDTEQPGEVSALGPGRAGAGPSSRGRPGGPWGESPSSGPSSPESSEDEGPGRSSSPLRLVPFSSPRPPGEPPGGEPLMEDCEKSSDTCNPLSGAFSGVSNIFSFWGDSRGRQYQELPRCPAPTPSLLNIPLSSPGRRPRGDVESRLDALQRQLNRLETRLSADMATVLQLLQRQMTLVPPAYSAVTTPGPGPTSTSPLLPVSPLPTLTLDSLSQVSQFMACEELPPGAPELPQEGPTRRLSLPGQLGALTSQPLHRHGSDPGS

`CCNC(=O)Nc1ccc(-c2sc3c(c2CN(C)C)c(=O)n(-c2ccc(OC)nn2)c(=O)n3Cc2c(F)cccc2F)cc1` [Compound 2A] showed an IC90 (human GnRHR [1]) of 13.2 nM, an IC50 (human GnRHR [1]; Chem-1 cell membranes, 0.05 nM [125I]-[D-Trp6]-LH-RH) of 0.87 nM and an IC50 (human GnRHR [2]; read-out: Functional IC50) of 1.84 nM. The IC90 (human GnRHR [2]; read-out: Functional IC90) was 8.19 nM, the Pituitary concentration ([3]; 1 h) was 280 ± 80 and the Plasma concentration ([3]; 1 h) was 32.2 ± 18.0. For the same compound, the Pituitary concentration ([3]; 4 h) was 279 ± 70, the Plasma concentration ([3]; 4 h) was 13.3 ± 5.1 and the Pituitary concentration ([3]; 12 h) was 333 ± 90. For the same compound, the Plasma concentration ([3]; 12 h) was 5.59 ± 1.55, the Kp at 1 h ([3]; male, Sprague-Dawley (SD), rat, pituitary/plasma, oral, 1 h) was 8.7 and the Kp at 4 h ([3]; male, Sprague-Dawley (SD), rat, pituitary/plasma, oral, 4 h) was 21. The Kp at 12 h ([3]; male, Sprague-Dawley (SD), rat, pituitary/plasma, oral, 12 h) was 59.6, the IC50 ([4]; CHO cells stably expressing human hERG potassium channel) was 6070 nM and the “Inhibitory activity on the human hERG potassium channel compared with Relugolix” value [4] was “equal to or less than that of Relugolix”. For the same compound, the AUC(0-t) [5, 9] was 0.487 ± 0.15 µg·h/mL, the C0 [5, 9] was 0.521 ± 0.322 µg/mL and the MRT last [5, 9] was 4.14 ± 1.83 h. For the same compound, the half-life [5, 9] was 6.64 ± 3.1 h, the AUC(0-t) [5, 10] was 0.37 ± 0.109 µg·h/mL and the Cmax [5, 10] was 0.0699 ± 0.0151 µg/mL. For the same compound, the MRT last [5, 10] was 9.2 ± 2.3 h, the half-life [5, 10] was 18 ± 15.9 h and the bioavailability ([5]; male, Sprague-Dawley (SD), rat, plasma, po) was 6.33%. The Tmax ([5]; male, Sprague-Dawley (SD), rat, plasma, po, i.g 12 mg/kg, read-out: Tmax) was 0.25 h, the efflux ratio at 120 min ([6]; read-out: Efflux ratio) was 1180 and the Papp A→B at 120 min ([6]; Caco-2, 120 min incubation) was 0.0816 nm/s. The Papp B→A at 120 min ([6]; Caco-2, 120 min incubation) was 96.5 nm/s.

In the case of `CCNC(=O)Nc1ccc(-c2sc3c(c2CN(C)C)c(=O)n(-c2ccc(OC)nn2)c(=O)n3Cc2c(F)cccc2F)cn1` [Compound 2], the CLint scaled [7] is reported as 0.292 L/h/kg, the half-life [7] is reported as 4.28 h and the “Residual content at 60 min” value ([7]; NADPH, 37° C.) is reported as 83.8%. The microsomal CLint ([7]; read-out: CLint(mic)) was 5.4 µL/min/mg, the Pituitary concentration ([3]; 1 h) was 2250 ± 474 and the Pituitary/plasma ([3]; 1 h) was 56.9. For the same compound, the Plasma concentration ([3]; 1 h) was 39.5 ± 14.0, the “Concentration in the pituitary relative to Relugolix” value ([3]; 1 h) was 2.38 fold and the “Concentration in the pituitary relative to compound 2A” value ([3]; 1 h) was 8.04 fold. The Pituitary concentration ([3]; 4 h) was 1841 ± 636, the Pituitary/plasma ([3]; 4 h) was 80.8 and the Plasma concentration ([3]; 4 h) was 22.8 ± 2.5. The “Concentration in the pituitary relative to Relugolix” value ([3]; 4 h) was 1.48 fold, the “Concentration in the pituitary relative to compound 2A” value ([3]; 4 h) was 6.60 fold and the Pituitary concentration ([3]; 12 h) was 1254 ± 494. The Pituitary/plasma ([3]; 12 h) was 129, the Plasma concentration ([3]; 12 h) was 9.70 ± 3.10 and the “Concentration in the pituitary relative to Relugolix” value ([3]; 12 h) was 2.46 fold. For the same compound, the “Concentration in the pituitary relative to compound 2A” value ([3]; 12 h) was 3.77 fold, the “Residual content at 60 min” value ([8]; NADPH, 37° C.) was 61.0% and the CLint scaled ([8]; SD) was 1.7 L/h/kg. For the same compound, the half-life ([8]; SD) was 1.46 h, the microsomal CLint ([8]; SD, read-out: CLint(mic)) was 15.8 µL/min/mg and the “Inhibitory activity on the human hERG potassium channel compared with Relugolix” value [4] was “equal to or less than that of Relugolix”. For the same compound, the “AUClast relative to Relugolix” value [5, 11] was 2.45 fold, the “Absolute bioavailability relative to Relugolix” value [5, 11] was 3.47 fold and the “Cmax relative to Relugolix” value [5, 11] was 3.63 fold. For the same compound, the “AUClast relative to compound 2A” value [5, 12] was 0.96 fold, the “Absolute bioavailability relative to compound 2A” value [5, 12] was 3.14 fold and the “Cmax relative to compound 2A” value [5, 12] was 1.12 fold. The bioavailability ([5]; male, rat, plasma, oral) was 19.9%, the efflux ratio at 120 min [6] was roughly 6 and the Efflux ratio (Caco-2 cells; Caco-2) was 294. For the same compound, the “Mean Papp A to B” value (Caco-2 cells; Caco-2, 120 min incubation) was 0.0142 10^−6 cm/s and the “Mean Papp B to A” value (Caco-2 cells; Caco-2, 120 min incubation) was 4.19 10^−6 cm/s.
